# Test system: hedgehog signaling in embryonic mouse lungs
# Test: embryonic mouse lung explants, Q-RT-PCR of gli-1 and Sp-C
# Type: cell-based
# Details: E13.5 mouse lung explants, Q-RT-PCR normalized to GAPDH
# Method: METHODS: E13.5 embryonic mouse lungs were dissected. Explants were grown exposed to the air-liquid interface in lung explant medium (DMEM based, additives optimized for the culture of mouse lungs) for 67 hrs. They were then processed for quantitative real-time PCR (Q-RT-PCR). Briefly, total ribonucleic acid (RNA) is isolated from the tissue and subjected to reverse transcription to generate DNA. This DNA is amplified in a polymerase chain reaction using gene-specific primers as well as primers for the ubiquitously expressed housekeeping gene GAPDH. The two primer sets are labeled with different fluorophores, allowing for quantification of both signals in the same reaction tube in a real-time PCR machine (TaqMan). When calculating the expression level of gli-1, the specific signal is normalized to the GAPDH signal, which serves as a measure of the total DNA used in the reaction.
# METHODS: E13.5 old embryonic mouse lungs were dissected. Explants were grown submerged in lung explant medium (DMEM based, additives optimized for the culture of mouse lungs) for 50 hrs. They were then processed for Q-RT-PCR. Briefly, total ribonucleic acid (RNA) is isolated from the tissue and subjected to reverse transcription to generate DNA. […] The two primer sets are labeled with different fluorophores, allowing for quantification of both signals in the same reaction tube in a real-time PCR machine (TaqMan). […]
row,Compound,surfactant type C (Sp-C) expression
1,C[C@]12CCC(=O)C=C1CC[C@@H]1[C@@H]2[C@@H](O)C[C@@]2(C)[C@H]1CC[C@]2(O)C(=O)CO [hydrocortisone],comparable

# Test system: Shh signaling pathway in MEFs homozygous for ptc-lacZ
# Test: β-galactosidase activity in ptc-lacZ mouse embryonic fibroblasts
# Type: cell-based
# Details: MEFs homozygous for ptc-lacZ (cell line 23-1), normalized to whole protein content
# Description: The Shh signaling pathway can be activated in these fibroblasts in cell culture, and that the level of β-galactosidase activity does reflect the degree of pathway activation.
row,Compound,β-galactosidase activity
1,C[C@H]1CC[C@]2(NC1)O[C@H]1C[C@H]3[C@@H]4CC[C@H]5C[C@@H](O)CC[C@]5(C)[C@H]4CC[C@]3(C)[C@H]1[C@@H]2C [tomatidine],non-inhibitory

# Test system: Shh-induced Gli-transcription
# Test: Gli-Luc assay in 10T1/2(s12) cells activated with OCT-SHH
# Type: cell-based
# Details: Gli-Luc response, OCT-SHH 0.3 μg/ml
# Method: Compounds to be tested are dissolved in DMSO to a concentration of 10 mM, and stored at −20° C. To activate the Hedgehog pathway in the assay cells, an octylated (lipid-modified) form of the N-terminal fragment of the Sonic Hedgehog protein (OCT-SHH) is used. This N-terminal SHH fragment is produced bacterially.
# Compounds may be tested in the “Gli-Luc” assay below, using the cell line 10T(s12), wherein the cells contain a Hedgehog-responsive reporter construct utilizing Luciferase as the reporter gene. In this way, Hedgehog pathway signaling activity can be measured via the Gli-Luc response.
# 10t1/2(s12) cells are plated in a 96-well micro-titer plate (MTP) at 20,000 cells/well in full medium [DMEM with 10% FBS]. Then plates are placed in the incubator for incubation overnight (O/N), at 37° C. and 5% CO2. After 24 h, the medium is replaced with Luciferase-assay medium (DMEM with 5% FBS). Compounds are thawed and diluted in assay medium at 3:1000 (about 300-fold) resulting in a starting concentration of about 30 μM.
# Subsequently, 150 μl of each 30 μM sample is added to the first wells (in triplicate). The MTP samples are then diluted at 3-fold dilutions to a total of seven wells, ultimately resulting in a regiment of seven dilutions in triplicate, for each compound. Next, the protein ligand OCT-SHH is diluted in Luciferase-assay medium and added to each well at a final concentration of 0.3 μg/ml. Plates are then returned to the incubator for further incubation O/N, at 37° C. and 5% CO2. After about 24 h, plates are removed from the incubator and the medium is aspirated/discarded. Wells are washed once with assay buffer [PBS+1 mM Mg^2+ and 1 mM Ca^2+]. Then 50 μl of assay buffer is added to each well. The Luciferase assay reagent is prepared as described by the vendor (LucLite kit from Packard), and 50 μl is added to each well. Plates are incubated at room temperature (RT) for about 30 minutes after which the signals are read, again at RT, on a Topcount (Packard).
row,Compound,IC50
1,O=C(NCc1nc2ccccc2c(=O)n1-c1ccc(F)cc1)Nc1ccc(Cl)c(C(F)(F)F)c1 [Compound 5],< 0.1 µM
2,O=C(NCc1nc2ccccc2c(=O)n1-c1ccc(F)cc1)Nc1cc(Cl)nc(Cl)c1 [Compound 6],< 0.5 µM
3,CC(c1nc2ccccc2c(=O)n1-c1ccc(F)cc1)N(C)C(=O)Nc1ccc([N+](=O)[O-])c(C(F)(F)F)c1 (stereo not drawn) [Compound 32],< 5 µM
4,CCC(c1nc2ccccc2c(=O)n1-c1ccc(C)cc1)N(CCc1ccccc1)C(=O)CCCCF (stereo not drawn) [Compound 39],< 5 µM
5,CCCCc1ccc(C(=O)N(Cc2ccccc2)C(CC)c2nc3ccccc3c(=O)n2-c2ccc(C)cc2)cc1 (stereo not drawn) [Compound 40],< 10 µM
6,CC(c1nc2ccccc2c(=O)n1-c1ccc(F)cc1)N1CCN(C(=O)Nc2ccc(Cl)c(Cl)c2)CC1 (stereo not drawn) [Compound 43],< 10 µM
7,CCC(c1nc2ccccc2c(=O)[nH]1)N1CCN(C(=O)Nc2ccc(Cl)c(Cl)c2)C(C)C1 (stereo not drawn) [Compound 45],< 5 µM
8,CCC(C)N(CCC(=O)NC1CCCc2ccccc21)C(=O)c1cccc2ccccc12 (stereo not drawn) [Compound 48],< 0.5 µM
9,CCC(C)N(CCC(=O)NC1CCCc2ccccc21)C(=O)COc1ccc(Cl)cc1 (stereo not drawn) [Compound 49],< 1 µM
10,O=C(Cc1cccc(C(F)(F)F)c1)NCCc1nc2ccccc2c(=O)n1-c1ccc(F)cc1 [Compound 50],< 1 µM
11,CC(c1nc2ccccc2c(=O)n1-c1ccc(F)cc1)N(C)C(=O)Nc1ccc(Cl)c(Cl)c1 (stereo not drawn) [Compound 53],< 1 µM
12,CC(c1nc2ccccc2c(=O)n1-c1ccc(F)cc1)N(C)C(=O)Nc1ccc(C(F)(F)F)cc1 (stereo not drawn) [Compound 54],< 5 µM
13,CC(c1nc2ccccc2c(=O)n1-c1ccc(F)cc1)N(C)C(=O)Nc1ccc(-c2ccccc2)cc1 (stereo not drawn) [Compound 56],< 10 µM
14,CC(c1nc2ccccc2c(=O)n1-c1ccc(F)cc1)N(C)C(=O)Nc1ccc(SC(F)(F)F)cc1 (stereo not drawn) [Compound 60],< 5 µM
15,CC(c1nc2ccccc2c(=O)n1-c1ccc(F)cc1)N(C)C(=O)Nc1ccc([N+](=O)[O-])c(Cl)c1 (stereo not drawn) [Compound 62],< 1 µM
16,CCOOC(=O)c1cccc(NC(=O)N(C)C(C)c2nc3ccccc3c(=O)n2-c2ccc(F)cc2)c1 (stereo not drawn) [Compound 65],< 10 µM
17,COc1cccc(NC(=O)NCc2nc3ccccc3c(=O)n2-c2ccc(F)cc2)c1C [Compound 71],< 10 µM

# More lines, now with the values ahead:
row,IC50,Compound
1,< 5 µM,CC(c1nc2ccccc2c(=O)n1-c1ccc(F)cc1)N(C)C(=O)Nc1cccc(C(F)(F)F)c1 (stereo not drawn) [Compound 11]
2,< 10 µM,CC(c1nc2ccccc2c(=O)n1-c1ccc(F)cc1)N(Cc1ccco1)C(=O)Nc1cccc(F)c1 (stereo not drawn) [Compound 31]
3,< 5 µM,CCCN(C(=O)Nc1cccc(Cl)c1)C(C)c1nc2ccccc2c(=O)n1-c1ccc(F)cc1 (stereo not drawn) [Compound 34]
4,< 5 µM,CCCN(C(=O)Nc1cccc(C(F)(F)F)c1)C(C)c1nc2ccccc2c(=O)n1-c1ccc(F)cc1 (stereo not drawn) [Compound 36]
5,< 5 µM,CCCN(C(=O)Nc1cccc(OC)c1)C(C)c1nc2ccccc2c(=O)n1-c1ccc(F)cc1 (stereo not drawn) [Compound 38]
6,< 10 µM,CCCCCCCCC(=O)N(CCCCC)C(C)c1nc2ccccc2c(=O)n1-c1ccccc1 (stereo not drawn) [Compound 41]
7,< 5 µM,CCC(=O)N1CCN(C(CC)c2nc3ccccc3c(=O)n2-c2ccc(C)cc2)C(C)C1 (stereo not drawn) [Compound 42]
8,< 1 µM,O=C(NCc1nc2ccccc2c(=O)n1-c1ccc(F)cc1)Nc1cccc(C(F)(F)F)c1 [Compound 44]
9,< 0.5 µM,CCC(c1nc2ccccc2c(=O)[nH]1)N1CCN(C(=O)c2ccc(-c3ccccc3)cc2)C(C)C1 (stereo not drawn) [Compound 46]
10,< 5 µM,CCCN(CCC(=O)NC1CCCc2ccccc21)C(=O)c1cc(OC)cc(OC)c1 (stereo not drawn) [Compound 47]
11,< 5 µM,CC(c1nc2ccccc2c(=O)n1-c1ccc(F)cc1)N(C)C(=O)Nc1cccc(C#N)c1 (stereo not drawn) [Compound 51]
12,< 1 µM,CC(c1nc2ccccc2c(=O)n1-c1ccc(F)cc1)N(C)C(=O)Nc1cccc(SC(F)(F)F)c1 (stereo not drawn) [Compound 52]
13,< 5 µM,CC(c1nc2ccccc2c(=O)n1-c1ccc(F)cc1)N(C)C(=O)Nc1cccc(F)c1 (stereo not drawn) [Compound 55]
14,< 10 µM,CC(C)c1cccc(NC(=O)N(C)C(C)c2nc3ccccc3c(=O)n2-c2ccc(F)cc2)c1 (stereo not drawn) [Compound 57]
15,< 5 µM,CC(c1nc2ccccc2c(=O)n1-c1ccc(F)cc1)N(C)C(=O)Nc1cc(Cl)nc(Cl)c1 (stereo not drawn) [Compound 58]
16,< 5 µM,Cc1c(NC(=O)N(C)C(C)c2nc3ccccc3c(=O)n2-c2ccc(F)cc2)cccc1[N+](=O)[O-] (stereo not drawn) [Compound 59]
17,< 1 µM,CC(c1nc2ccccc2c(=O)n1-c1ccc(F)cc1)N(C)C(=O)Nc1ccc(Cl)c(C(F)(F)F)c1 (stereo not drawn) [Compound 61]
18,< 10 µM,CCOC(=O)c1ccccc1NC(=O)N(C)C(C)c1nc2ccccc2c(=O)n1-c1ccc(F)cc1 (stereo not drawn) [Compound 63]
19,< 10 µM,CC(c1nc2ccccc2c(=O)n1-c1ccc(F)cc1)N(C)C(=O)Nc1ccc([N+](=O)[O-])cc1Cl (stereo not drawn) [Compound 64]
20,< 10 µM,CC(c1nc2ccccc2c(=O)n1-c1ccc(F)cc1)N(C)C(=O)Nc1ccc(Cl)cc1[N+](=O)[O-] (stereo not drawn) [Compound 66]
21,< 5 µM,Cc1c(NC(=O)NCc2nc3ccccc3c(=O)n2-c2ccc(F)cc2)cccc1SC(F)(F)F [Compound 67]
22,< 1 µM,O=C(NCc1nc2ccccc2c(=O)n1-c1ccc(F)cc1)Nc1ccc(Cl)c(Cl)c1 [Compound 68]
23,< 0.5 µM,O=C(NCc1nc2ccccc2c(=O)n1-c1ccc(F)cc1)Nc1ccc(Cl)c([N+](=O)[O-])c1 [Compound 69]
24,< 5 µM,CC(NC(=O)Nc1cccc(C(F)(F)F)c1)c1nc2ccccc2c(=O)n1-c1ccc(F)cc1 (stereo not drawn) [Compound 73]
25,< 5 µM,O=C(NCCCc1nc2ccccc2c(=O)n1-c1ccc(F)cc1)Nc1cccc(C(F)(F)F)c1 [Compound 74]
26,< 5 µM,O=C(Nc1cccc(C(F)(F)F)c1)NC(c1nc2ccccc2c(=O)n1-c1ccc(F)cc1)C1CC1 (stereo not drawn) [Compound 75]

# From patent publication US7708998B2, “Methods of inhibiting unwanted cell proliferation using hedgehog antagonists” (Curis, Inc., priority 2000, dated 2010)
